Test results as given in patent publication US20220363667A1 (Nippon Chemiphar Co., Ltd., priority 2018, published 2022).
“Also recorded” adds a separate entry of the source.

Legend:
[1] = target: T1, human Cav3.2 channels (Homo sapiens, UniProt O95180); test: T-type calcium blocking action: intracellular calcium concentration in cells steadily expressing human Cav3.2 channels; type: cell-based; details: HEK293 cells steadily expressing human Cav3.2 channels; Fluo-4 AM fluorescence increase after KCl stimulus
T1 construct: expressed in transfected cells
T1 sequence (O95180 whole entry): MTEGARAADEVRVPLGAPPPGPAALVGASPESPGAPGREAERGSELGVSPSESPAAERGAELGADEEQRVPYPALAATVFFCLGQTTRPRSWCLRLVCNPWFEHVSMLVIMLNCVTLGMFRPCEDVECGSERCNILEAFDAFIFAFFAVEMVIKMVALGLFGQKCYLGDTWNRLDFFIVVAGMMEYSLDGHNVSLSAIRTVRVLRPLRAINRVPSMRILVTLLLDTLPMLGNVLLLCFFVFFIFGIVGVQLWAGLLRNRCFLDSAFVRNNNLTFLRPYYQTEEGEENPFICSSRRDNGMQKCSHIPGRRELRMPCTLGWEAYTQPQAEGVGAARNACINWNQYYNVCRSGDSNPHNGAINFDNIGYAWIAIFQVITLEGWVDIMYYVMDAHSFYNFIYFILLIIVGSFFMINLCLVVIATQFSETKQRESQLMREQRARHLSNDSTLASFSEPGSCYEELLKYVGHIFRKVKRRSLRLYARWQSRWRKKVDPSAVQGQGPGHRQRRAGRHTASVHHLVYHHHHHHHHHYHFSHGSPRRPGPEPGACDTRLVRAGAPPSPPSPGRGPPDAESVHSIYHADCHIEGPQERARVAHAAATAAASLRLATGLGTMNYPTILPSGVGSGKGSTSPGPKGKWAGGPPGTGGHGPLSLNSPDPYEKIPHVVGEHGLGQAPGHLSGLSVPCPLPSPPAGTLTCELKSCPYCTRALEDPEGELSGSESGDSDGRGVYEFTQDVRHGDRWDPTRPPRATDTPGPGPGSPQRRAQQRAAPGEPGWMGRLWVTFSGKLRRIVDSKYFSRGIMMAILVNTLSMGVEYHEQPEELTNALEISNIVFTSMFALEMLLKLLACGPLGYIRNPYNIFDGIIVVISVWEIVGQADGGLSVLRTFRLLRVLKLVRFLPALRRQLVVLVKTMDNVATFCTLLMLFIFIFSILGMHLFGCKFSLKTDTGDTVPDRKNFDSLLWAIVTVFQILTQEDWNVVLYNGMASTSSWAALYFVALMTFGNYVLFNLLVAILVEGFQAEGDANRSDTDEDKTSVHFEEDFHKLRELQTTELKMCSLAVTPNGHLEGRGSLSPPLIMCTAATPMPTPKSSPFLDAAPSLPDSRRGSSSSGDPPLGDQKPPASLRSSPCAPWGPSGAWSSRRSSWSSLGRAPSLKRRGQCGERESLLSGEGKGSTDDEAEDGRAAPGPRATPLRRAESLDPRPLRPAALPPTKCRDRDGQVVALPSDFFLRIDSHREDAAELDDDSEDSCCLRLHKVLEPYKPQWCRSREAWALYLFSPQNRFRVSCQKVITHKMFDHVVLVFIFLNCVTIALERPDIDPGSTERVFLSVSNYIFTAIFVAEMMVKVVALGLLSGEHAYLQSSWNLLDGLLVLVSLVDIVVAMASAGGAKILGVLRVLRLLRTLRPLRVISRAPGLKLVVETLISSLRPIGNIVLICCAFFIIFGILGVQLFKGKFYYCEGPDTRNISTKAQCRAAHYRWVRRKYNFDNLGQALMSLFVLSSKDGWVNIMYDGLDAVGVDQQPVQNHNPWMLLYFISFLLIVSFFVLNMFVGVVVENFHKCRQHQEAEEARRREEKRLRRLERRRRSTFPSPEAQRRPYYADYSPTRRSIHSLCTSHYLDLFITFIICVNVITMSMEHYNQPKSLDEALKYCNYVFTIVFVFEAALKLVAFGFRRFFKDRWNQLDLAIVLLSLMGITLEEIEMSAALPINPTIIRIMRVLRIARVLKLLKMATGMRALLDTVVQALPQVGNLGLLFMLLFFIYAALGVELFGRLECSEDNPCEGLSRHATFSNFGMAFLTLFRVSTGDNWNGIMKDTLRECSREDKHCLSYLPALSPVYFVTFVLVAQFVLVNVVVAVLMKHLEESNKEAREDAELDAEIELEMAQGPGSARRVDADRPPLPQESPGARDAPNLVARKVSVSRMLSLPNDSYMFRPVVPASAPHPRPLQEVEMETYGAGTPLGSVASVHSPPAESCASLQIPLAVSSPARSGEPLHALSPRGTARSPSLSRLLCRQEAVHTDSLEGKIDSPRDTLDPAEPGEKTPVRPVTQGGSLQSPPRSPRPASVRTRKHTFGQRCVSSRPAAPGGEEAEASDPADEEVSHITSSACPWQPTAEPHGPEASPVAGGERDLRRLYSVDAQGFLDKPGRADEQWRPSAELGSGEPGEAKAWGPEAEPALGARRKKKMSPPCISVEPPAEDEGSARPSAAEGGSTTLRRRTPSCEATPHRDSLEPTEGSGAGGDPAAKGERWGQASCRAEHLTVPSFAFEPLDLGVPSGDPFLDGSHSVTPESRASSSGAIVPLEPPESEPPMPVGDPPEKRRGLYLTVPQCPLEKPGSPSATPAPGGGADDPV
Text: (1) Construction of Cells Steadily Expressing Human Cav3.2 Channels
A sequence obtained by adding HindIII site and a kozak sequence (GCCACC) to the 5′-side of human Cav3.2 channel ORF (Open Reading Frame) gene and adding a KpnI site to the 3′-side of the gene, was incorporated into pcDNA3.1 (+) (Thermo Fisher Scientific, #V790-20), and the plasmid was introduced into HEK293 cells (ATCC No. CRL-1573) according to the protocol of FuGENE (registered trademark) HD Transfection Reagent (Promega, #E2311).
(2) Method for Measuring Intracellular Calcium Concentration
The cell strain steadily expressing human Cav3.2 channels as produced by the testing method (1) was seeded on a 96-well plate using DMEM including 10% FBS, and the cells were cultured for 48 hours under the conditions of 37° C. and 5% CO2. Subsequently, the medium was removed, and each of the wells were washed with buffer A and treated with 80 μL of a fluorescent dye solution including a mixed liquid of 22 μg of a fluorescent calcium indicator, Fluo-4 AM (Dojindo Molecular Technologies, Inc., #F311), 20 μL of dimethyl sulfoxide (DMSO), 1 μL of 10% Pluronic F-127 (Thermo Fisher Scientific, #P6866), and 4 mL of buffer A. After the cells were left to stand for 45 minutes at room temperature under light-shielded conditions, and then the cells were washed with buffer B. DMSO as a negative control and various test compound solutions each obtained by dissolving a test compound dissolved in DMSO, in buffer B so as to obtain a 10-fold concentration of the evaluation concentration, were introduced into respective wells. The final concentration of DMSO was adjusted to 0.1%. The cells were left to stand for another 15 minutes at room temperature under light-shielded conditions, and measurement was made using a microplate reader, EnVision (PerkinElmer Inc.) using the following method. First, the background fluorescence of each well was measured, subsequently an ionophore was introduced into each well, and the baseline fluorescence was measured. Subsequently, buffer B having 83.8 mM KCl added thereto was introduced, and an increase in fluorescence caused by calcium influx generated by the stimulus was measured for 10 seconds. The percentage inhibition was calculated from the maximum fluorescence increase value from the baseline, the logarithmic value of the test compound concentration and the inhibitory activity are plotted, and thereby the IC50 value was calculated. The measurement was carried out by observing the fluorescence at 510 nm that was emitted when the cells were irradiated with excitation light at 485 nm.
Buffer A: 140 mM NaCl, 5 mM KCl, 1 mM MgCl2, 0.5 mM CaCl2, 10 mM Glucose, 10 mM HEPES, pH 7.3
Buffer B: 137.9 mM Choline-Cl, 4.1 mM KCl, 1 mM MgCl2, 0.5 mM CaCl2, 10 mM Glucose, 10 mM HEPES, pH 7.3, equilibrium potential of potassium: −92 mV

[2] = system: SD rats; test: Rat formalin test; type: in vivo; details: po, 30 mg/kg orally once, pain behavior time from 15 to 30 minutes after formalin administration vs vehicle group, read-out: Inhibition ratio (pain behavior inhibition ratio)
Experimental: 30 mg/kg of a vehicle or a test substance was orally administrated to SD rats once, and according to the method described in McNamara C. R., Mandel-Brehm J., Bautista D. M., Siemens J., Deranian K. L., Zhao M., Hayward N. J., Chong J. A., Julius D., Moran M. M., Fanger C. M.: TRPA1 mediates formalin-induced pain. Proc. Natl. Acad. Sci. U.S.A. 104, 2007, 13525-13530, 50 μL of a 2.0% formalin solution as a pain-inducing substance was subcutaneously administered under the skin of the plantar plate of the right hind limb of each rat.
Regarding the evaluation, the pain behavior inhibition ratio was determined from the pain behavior time of each test substance-administered group with respect to the pain behavior time of the vehicle-administered group for 15 minutes measured from 15 minutes to 30 minutes after the administration.

[3] = system: mouse PSNL model; test: Mechanical allodynia in mouse partial sciatic nerve ligation (PSNL) model; type: in vivo; details: 30 mg/kg orally administered, compared with the vehicle group
Text: The production of a mouse PSNL model was achieved according to the method of Seltzer et al. A mouse was subjected to inhalation anesthesia with isoflurane. The femoral region of the mouse was shaved and disinfected with isodine. The skin on a thighbone of the mouse was incised, the fascia directly under the skin was cut, and the muscle heads of the musculus biceps femoris were split. The sciatic nerve directly under the fascia was checked, and then the sciatic nerve was detached so as not to damage the nerve. The needle of a needle with 8-0 silk thread was passed through the sciatic nerve to penetrate therethrough, and the sciatic nerve was ligated for about ½ to ⅓ of the whole nerve. The skin was sutured, and the mouse was raised for about 7 days. […]
The measurement of the pain threshold was carried out after transferring the mice into a cage for measurement and waiting for the exploratory behavior to disappear. Regarding the pain threshold (paw withdrawal filament ((g)), the plantar plates of the mice were stimulated with von Frey filaments (Sttoelting Co.: TOUCH-TEST SENSORY EVLUATOR) having different stimulus intensities, and the presence or absence of an escape response was observed. The 50% threshold was calculated by an up-down method with reference to the method of Chaplan et al. (Quantitative assessment of tactile allodynia in the rat paw. J neurosci Methods, 53, 1994, 55-63). […]

Row | SMILES | IC50 [1] | inhibition in vivo at 30 mg/kg [2] | mechanical allodynia (pain threshold, von Frey filament test) [3]
1 | CS(=O)(=O)c1cccc(N2CC[C@@H](NC(=O)[C@H]3C[C@@H]3c3nc4ccccc4[nH]3)C2)c1 [Example 59, (1S,2S)-2-(1H-benzo[d]imidazol-2-yl)-N—((R)-1-(3-(methylsulfonyl)phenyl)pyrrolidin-3-yl)cyclopropane-1-carboxyamide] | 1800 nM |  | 
2 | N#Cc1cccc(N2CC[C@@H](NC(=O)[C@H]3C[C@@H]3c3nc4ccccc4[nH]3)C2)c1 [Example 60, (1S,2S)-2-(1H-benzo[d]imidazol-2-yl)-N—((R)-1-(3-cyanophenyl)pyrrolidin-3-yl)cyclopropane-1-carboxyamide] | 470 nM |  | 
3 | O=C(Cc1ccc(C2CC2)cc1)N[C@@H]1CCN(c2ccc(OCC(F)(F)F)nc2)C1 [Example 125, (R)-2-(4-cyclopropylphenyl)-N-(1-(6-(2,2,2-trifluoroethoxy)pyridin-3-yl)pyrrolidin-3-yl)acetamide] | > 10000 nM |  | 
4 | COc1ncc(C(F)(F)F)cc1N1CC[C@@H](NC(=O)Cc2ccc(C3CC3)cc2)C1 [Example 128, (R)-2-(4-cyclopropylphenyl)-N-(1-(2-methoxy-5-(trifluoromethyl)pyridin-3-yl)pyrrolidin-3-yl)acetamide] | > 10000 nM |  | 
5 | O=C(Cc1ccc(C2CC2)cc1)N[C@@H]1CCCN(c2ccc(C(F)(F)F)nc2)C1 [Example 130, (R)-2-(4-cyclopropylphenyl)-N-(1-(6-(trifluoromethyl)pyridin-3-yl)piperidin-3-yl)acetamide] | > 10000 nM |  | 
6 | NC(C(=O)N[C@@H]1CCN(c2cncc(C(F)(F)F)c2)C1)c1ccc(C2CC2)cc1 (stereo partly drawn) [Example 137B, 2-amino-2-(4-cyclopropylphenyl)-N((R)-1-(5-(trifluoromethyl)pyridin-3-yl)pyrrolidin-3-yl)acetamide] | 820 nM |  | 
7 | Cn1ncc2cc(CC(=O)N[C@@H]3CCN(c4ccc(C(F)(F)F)nc4)C3)ccc21 [Example 144, (R)-2-(1-methyl-1H-indazol-5-yl)-N-(1-(6-(trifluoromethyl)pyridin-3-yl)pyrrolidin-3-yl)acetamide] |  | ≥ 20% | inhibited mechanical allodynia statistically significantly; also recorded: suppressed statistically significantly
8 | O=C(Cc1ccc(C2CC2)cc1)NC1CN(c2ccc(C(F)(F)F)cc2)C1 [Example 169, 2-(4-Cyclopropylphenyl)-N-(1-(4-(trifluoromethyl)phenyl)azetidin-3-yl)acetamide] | > 10000 nM |  | 

More lines, main results first:

Row | IC50 [1] | SMILES | inhibition in vivo at 30 mg/kg [2] | mechanical allodynia (pain threshold, von Frey filament test) [3]
9 | 20 nM | O=C(N[C@@H]1CCN(c2ccc(F)c(C(F)(F)F)c2)C1)[C@H]1C[C@@H]1c1nc2ccccc2[nH]1 [Example 57, (1S,2S)-2-(1H-benzo[d]imidazol-2-yl)-N—((R)-1-(4-fluoro-3-(trifluoromethyl)phenyl)pyrrolidin-3-yl)cyclopropane-1-carboxyamide] | < 10% | 
10 | 410 nM | O=C(N[C@@H]1CCN(c2ccnc(C(F)(F)F)c2)C1)[C@H]1C[C@@H]1c1nc2ccccc2[nH]1 [Example 62, (1S,2S)-2-(1H-benzo[d]imidazol-2-yl)-N—((R)-1-(2-(trifluoromethyl)pyridin-4-yl)pyrrolidin-3-yl)cyclopropane-1-carboxyamide] |  | 
11 | 29 nM | COc1ncc(N2CC[C@@H](NC(=O)[C@H]3C[C@@H]3c3nc4ccccc4[nH]3)C2)cc1C(F)(F)F [Example 67, (1S,2S)-2-(1H-benzo[d]imidazol-2-yl)-N—((R)-1-(6-methoxy-5-(trifluoromethyl)pyridin-3-yl)pyrrolidin-3-yl) cyclopropane-1-carboxyamide] |  | 
12 | 1200 nM | O=C(N[C@@H]1CCN(c2ccc(C(F)(F)F)nn2)C1)[C@H]1C[C@@H]1c1nc2ccccc2[nH]1 [Example 69, (1S,2S)-2-(1H-benzo[d]imidazol-2-yl)-N—((R)-1-(6-(trifluoromethyl)pyridazin-3-yl)pyrrolidin-3-yl)cyclopropane-1-carboxyamide] |  | 
13 | 190 nM | O=C(N[C@@H]1CCCN(c2cncc(C(F)(F)F)c2)C1)[C@H]1C[C@@H]1c1nc2ccccc2[nH]1 [Example 186, (1S,23)-2-(1H-benzo[d]imidazol-2-yl)-N—((R)-1-(5-(trifluoromethyl)pyridin-3-yl)piperidin-3-yl)cyclopropane-1-carboxyamide] |  | 
